Source: PMC4076210, “Discovery of Novel AKT Inhibitors with Enhanced Anti-Tumor Effects in Combination with the MEK Inhibitor” (PLoS ONE, 2014)
Read-outs that look alike come from different tables or passages of the source.

Columns and labels:
Assay in all cases: Kinase panel
Format in all cases: biochemical
CDK3/cyclinE(h) = biological target: T1, CDK3/cyclinE(h) (Homo sapiens, UniProt Q00526)
T1 construct: purchased Millipore KinaseProfiler

Fyn(h) = biological target: T2, Fyn(h) (Homo sapiens, UniProt P06241)
T2 construct: purchased Millipore KinaseProfiler
T2 sequence (P06241 whole entry): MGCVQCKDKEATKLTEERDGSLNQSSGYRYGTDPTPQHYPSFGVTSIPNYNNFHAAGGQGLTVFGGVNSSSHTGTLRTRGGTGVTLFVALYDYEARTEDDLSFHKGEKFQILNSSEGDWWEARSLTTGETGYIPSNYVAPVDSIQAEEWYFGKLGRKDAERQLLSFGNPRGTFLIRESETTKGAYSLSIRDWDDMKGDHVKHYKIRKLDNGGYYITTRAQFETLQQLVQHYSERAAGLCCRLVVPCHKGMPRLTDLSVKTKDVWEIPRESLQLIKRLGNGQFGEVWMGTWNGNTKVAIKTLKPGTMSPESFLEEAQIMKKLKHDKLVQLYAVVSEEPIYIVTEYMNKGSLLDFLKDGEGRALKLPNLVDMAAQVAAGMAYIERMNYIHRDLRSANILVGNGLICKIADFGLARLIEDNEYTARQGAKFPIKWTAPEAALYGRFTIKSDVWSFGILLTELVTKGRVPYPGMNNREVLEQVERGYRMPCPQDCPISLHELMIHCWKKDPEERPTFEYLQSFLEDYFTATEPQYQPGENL

ULK3(h) = biological target: T3, ULK3(h) (Homo sapiens, UniProt Q6PHR2)
T3 construct: purchased Millipore KinaseProfiler
T3 sequence (Q6PHR2 1-472): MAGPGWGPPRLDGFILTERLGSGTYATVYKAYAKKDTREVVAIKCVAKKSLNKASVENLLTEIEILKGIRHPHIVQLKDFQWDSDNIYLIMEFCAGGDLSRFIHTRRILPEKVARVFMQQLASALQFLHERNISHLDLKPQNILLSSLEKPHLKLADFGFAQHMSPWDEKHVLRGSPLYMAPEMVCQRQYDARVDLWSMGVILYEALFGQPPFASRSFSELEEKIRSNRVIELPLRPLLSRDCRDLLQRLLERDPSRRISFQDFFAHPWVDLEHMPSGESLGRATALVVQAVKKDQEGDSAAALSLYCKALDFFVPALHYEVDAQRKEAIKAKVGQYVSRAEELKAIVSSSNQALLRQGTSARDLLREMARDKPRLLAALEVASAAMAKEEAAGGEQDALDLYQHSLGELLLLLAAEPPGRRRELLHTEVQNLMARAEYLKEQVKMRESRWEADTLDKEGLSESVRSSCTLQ

MuSK(h) = biological target: T4, MuSK(h) (Homo sapiens, UniProt O15146)
T4 construct: purchased Millipore KinaseProfiler
T4 sequence (O15146 24-869): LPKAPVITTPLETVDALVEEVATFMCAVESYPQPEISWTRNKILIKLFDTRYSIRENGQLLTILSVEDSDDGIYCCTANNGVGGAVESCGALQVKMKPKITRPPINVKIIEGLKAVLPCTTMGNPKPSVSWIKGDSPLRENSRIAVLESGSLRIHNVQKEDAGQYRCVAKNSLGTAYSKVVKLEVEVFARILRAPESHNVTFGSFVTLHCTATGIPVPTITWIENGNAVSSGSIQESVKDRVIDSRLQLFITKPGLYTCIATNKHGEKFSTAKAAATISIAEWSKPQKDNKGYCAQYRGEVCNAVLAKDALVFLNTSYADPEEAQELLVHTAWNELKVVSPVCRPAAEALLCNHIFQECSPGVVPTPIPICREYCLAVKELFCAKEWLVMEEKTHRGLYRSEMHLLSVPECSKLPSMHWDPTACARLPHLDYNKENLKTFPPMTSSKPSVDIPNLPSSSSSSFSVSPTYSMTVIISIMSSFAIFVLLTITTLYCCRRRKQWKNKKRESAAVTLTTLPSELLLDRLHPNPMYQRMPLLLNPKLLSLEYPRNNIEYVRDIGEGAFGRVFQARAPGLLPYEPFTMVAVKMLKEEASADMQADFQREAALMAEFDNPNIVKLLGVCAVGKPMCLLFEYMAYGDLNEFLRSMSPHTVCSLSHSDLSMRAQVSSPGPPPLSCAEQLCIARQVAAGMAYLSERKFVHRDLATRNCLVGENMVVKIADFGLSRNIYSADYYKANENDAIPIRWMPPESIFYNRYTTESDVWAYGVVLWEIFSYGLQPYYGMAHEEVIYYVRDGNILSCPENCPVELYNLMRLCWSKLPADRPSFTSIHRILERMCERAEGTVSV

Axl(h) = biological target: T5, Axl(h) (Homo sapiens, UniProt P30530)
T5 construct: purchased Millipore KinaseProfiler
T5 sequence (P30530 26-894): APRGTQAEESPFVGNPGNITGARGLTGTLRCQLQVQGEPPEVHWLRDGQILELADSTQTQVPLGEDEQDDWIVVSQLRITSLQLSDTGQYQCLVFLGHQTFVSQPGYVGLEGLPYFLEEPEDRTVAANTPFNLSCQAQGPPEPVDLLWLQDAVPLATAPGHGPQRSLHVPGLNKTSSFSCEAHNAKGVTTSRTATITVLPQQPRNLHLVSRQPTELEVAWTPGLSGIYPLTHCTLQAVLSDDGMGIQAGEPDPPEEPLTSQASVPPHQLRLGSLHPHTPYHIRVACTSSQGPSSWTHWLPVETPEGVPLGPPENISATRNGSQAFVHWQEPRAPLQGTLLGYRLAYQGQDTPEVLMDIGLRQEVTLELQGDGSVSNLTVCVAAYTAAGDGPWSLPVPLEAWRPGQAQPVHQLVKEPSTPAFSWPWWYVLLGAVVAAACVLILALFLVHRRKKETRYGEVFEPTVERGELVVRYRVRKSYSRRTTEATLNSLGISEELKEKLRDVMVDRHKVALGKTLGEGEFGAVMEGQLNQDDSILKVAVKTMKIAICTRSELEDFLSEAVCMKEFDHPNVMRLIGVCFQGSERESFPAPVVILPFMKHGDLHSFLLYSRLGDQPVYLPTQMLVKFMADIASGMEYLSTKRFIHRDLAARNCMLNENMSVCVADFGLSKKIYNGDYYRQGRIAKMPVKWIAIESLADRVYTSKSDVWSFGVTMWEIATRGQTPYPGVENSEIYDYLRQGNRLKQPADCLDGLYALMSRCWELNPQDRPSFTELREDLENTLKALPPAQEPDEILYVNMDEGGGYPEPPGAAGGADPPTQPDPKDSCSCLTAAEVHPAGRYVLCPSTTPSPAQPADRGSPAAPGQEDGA

T1 sequence (Q00526 whole entry): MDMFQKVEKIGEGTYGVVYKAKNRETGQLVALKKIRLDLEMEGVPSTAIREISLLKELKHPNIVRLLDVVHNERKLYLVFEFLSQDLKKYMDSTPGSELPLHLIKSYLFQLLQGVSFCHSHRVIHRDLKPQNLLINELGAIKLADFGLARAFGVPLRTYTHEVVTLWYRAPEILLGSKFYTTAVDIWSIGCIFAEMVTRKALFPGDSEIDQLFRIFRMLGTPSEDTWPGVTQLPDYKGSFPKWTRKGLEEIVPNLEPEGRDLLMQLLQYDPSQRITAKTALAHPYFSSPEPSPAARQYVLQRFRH
T1 sequence (P24864 whole entry partner): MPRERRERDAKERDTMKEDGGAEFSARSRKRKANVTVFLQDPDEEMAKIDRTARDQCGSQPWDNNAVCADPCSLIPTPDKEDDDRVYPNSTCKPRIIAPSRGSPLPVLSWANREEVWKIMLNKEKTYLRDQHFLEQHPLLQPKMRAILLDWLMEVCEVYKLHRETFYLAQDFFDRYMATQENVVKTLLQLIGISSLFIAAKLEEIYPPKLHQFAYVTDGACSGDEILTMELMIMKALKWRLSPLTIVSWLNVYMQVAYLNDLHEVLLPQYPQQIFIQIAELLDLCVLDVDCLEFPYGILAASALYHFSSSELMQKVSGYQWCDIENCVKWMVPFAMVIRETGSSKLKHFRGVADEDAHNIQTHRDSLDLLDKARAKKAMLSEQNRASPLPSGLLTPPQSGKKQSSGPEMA

Cn1ncc(Cl)c1-c1cc(C(=O)N[C@H](CN)Cc2cccc(F)c2)sc1Cl [GSK2110183]
inhibition at 0.5 µM (CDK3/cyclinE(h)): 0%
inhibition at 10 µM (CDK3/cyclinE(h)): 20%
inhibition at 0.5 µM (Fyn(h)): -3%
inhibition at 10 µM (Fyn(h)): 12%
inhibition at 0.5 µM (ULK3(h)): 20%
inhibition at 10 µM (ULK3(h)): 72%
inhibition at 0.5 µM (MuSK(h)): -25%
inhibition at 10 µM (MuSK(h)): -20%
inhibition at 0.5 µM (Axl(h)): 6%
inhibition at 10 µM (Axl(h)): 37%

Cn1ncc(Cl)c1-c1cc(C(=O)N[C@H](CN)Cc2ccc(F)c(F)c2)oc1Cl [GSK2141795]
inhibition at 0.5 µM (CDK3/cyclinE(h); 0.5 µM, read-out: % Inhibition): -13%
inhibition at 10 µM (CDK3/cyclinE(h); 10 µM, read-out: % Inhibition): 30%
inhibition at 0.5 µM (Fyn(h); 0.5 µM, read-out: % Inhibition): -8%
inhibition at 10 µM (Fyn(h); 10 µM, read-out: % Inhibition): 10%
inhibition at 0.5 µM (ULK3(h); 0.5 µM, read-out: % Inhibition): 0%
inhibition at 10 µM (ULK3(h); 10 µM, read-out: % Inhibition): 49%
inhibition at 0.5 µM (MuSK(h); 0.5 µM, read-out: % Inhibition): -11%
inhibition at 10 µM (MuSK(h); 10 µM, read-out: % Inhibition): -2%
inhibition at 0.5 µM (Axl(h); 0.5 µM, read-out: % Inhibition): -2%
inhibition at 10 µM (Axl(h); 10 µM, read-out: % Inhibition): -6%
